The text below walks through data of patent US20090209577A1, “Novel Triazolopyridine Compounds” (PFIZER INC., priority 2004, published 2009).

The IC50 is the point on the concentration scale where inhibition reaches its midpoint. High values mean weaker potency, low ones greater potency.

Where a name gives a salt, the structure may show the parent alone. A value given as a limit tells only on which side of the number the result lay.

T1 sequence (Q16539 whole entry): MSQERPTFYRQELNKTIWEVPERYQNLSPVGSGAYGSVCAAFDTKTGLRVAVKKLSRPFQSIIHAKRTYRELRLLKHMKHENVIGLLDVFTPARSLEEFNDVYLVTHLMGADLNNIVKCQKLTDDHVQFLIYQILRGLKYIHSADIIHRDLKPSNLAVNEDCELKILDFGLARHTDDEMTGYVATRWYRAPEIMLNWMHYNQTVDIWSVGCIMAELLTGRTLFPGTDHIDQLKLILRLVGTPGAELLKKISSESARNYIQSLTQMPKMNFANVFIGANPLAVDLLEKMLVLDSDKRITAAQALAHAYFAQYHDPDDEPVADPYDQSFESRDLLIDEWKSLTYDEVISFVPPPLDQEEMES

The assay concerns the target T1, human p38 kinase alpha (Homo sapiens, UniProt Q16539).
T1 construct: The coding region of the human p38a cDNA was obtained by PCR-amplification from RNA isolated from the human monocyte cell line THP.1; made in house; host or cells: E. coli DH10B
Kind of assay: p38 kinase in vitro assay (PHAS-I / 32P-ATP format or EGFRP / 33P-ATP format). The following applies: activated human p38 kinase alpha, 50 μM unlabeled ATP; two assay formats, table does not say which. The assay is classed as biochemical. The method, then: The ability of compounds to inhibit human p38 kinase alpha was evaluated using two in vitro assay methods. In the first method, activated human p38 kinase alpha phosphorylates a biotinylated substrate, PHAS-I (phosphorylated heat and acid stable protein-insulin inducible), in the presence of gamma ^32P-ATP (^32P-ATP). PHAS-I was biotinylated prior to the assay and provides a means of capturing the substrate, which is phosphorylated during the assay. p38 Kinase was activated by MKK6. Compounds were tested in 10 fold serial dilutions over the range of 100 μM to 0.001 μM using 1% DMSO. Each concentration of inhibitor was tested in triplicate.
All reactions were carried out in 96 well polypropylene plates. Each reaction well contained 25 mM HEPES pH 7.5, 10 mM magnesium acetate and 50 μM unlabeled ATP. Activation of p38 was required to achieve sufficient signal in the assay. Biotinylated PHAS-1 was used at 1-2 μg per 50 μl reaction volume, with a final concentration of 1.5 μM. Activated human p38 kinase alpha was used at 1 μg per 50 μl reaction volume representing a final concentration of 0.3 μM. Gamma ^32P-ATP was used to follow the phosphorylation of PHAS-1. ^32P-ATP has a specific activity of 3000 Ci/mmol and was used at 1.2 μCi per 50 μl reaction volume. The reaction proceeded either for one hour or overnight at 30° C.
Following incubation, 20 μl of reaction mixture was transferred to a high capacity streptavidin coated filter plate (SAM-streptavidin-matrix, Promega) prewetted with phosphate buffered saline. The transferred reaction mix was allowed to contact the streptavidin membrane of the Promega plate for 1-2 minutes. Following capture of biotinylated PHAS-1 with ^32P incorporated, each well was washed to remove unincorporated ^32P-ATP three times with 2M NaCl, three washes of 2M NaCl with 1% phosphoric, three washes of distilled water and finally a single wash of 95% ethanol. Filter plates were air-dried and 20 μl of scintillant was added. The plates were sealed and counted.
A second assay format was also employed that is based on p38 kinase alpha induced phosphorylation of EGFRP (epidermal growth factor receptor peptide, a 21 mer) in the presence ^33P-ATP. Compounds were tested in 10 fold serial dilutions over the range of 100 μM to 0.001 μM in 1% DMSO. Each concentration of inhibitor was tested in triplicate. Compounds were evaluated in 50 μl reaction volumes in the presence of 25 mM Hepes pH 7.5, 10 mM magnesium acetate, 4% glycerol, 0.4% bovine serum albumin, 0.4 mM DTT, 50 μM unlabeled ATP, 25 μg EGFRP (200 μM), and 0.05 μCi ^33P-ATP. Reactions were initiated by addition of 0.09 μg of activated, purified human GST-p38 kinase alpha. Activation was carried out using GST-MKK6 (5:1, p38:MKK6) for one hour at 30° C. in the presence of 50 μM ATP. Following incubation for 60 minutes at room temperature, the reaction was stopped by addition of 150 μl of AG 1×8 resin in 900 mM sodium formate buffer, pH 3.0 (1 volume resin to 2 volumes buffer). The mixture was mixed three times with pipetting and the resin was allowed to settle. A total of 50 μl of clarified solution head volume was transferred from the reaction wells to Microlite-2 plates. 150 μl of Microscint 40 was then added to each well of the Microlite plate, and the plate was sealed, mixed, and counted.
The above protocol assays were used to determine the IC50 values for compounds in Examples 1-71 above.
As for `CC(C)c1nnc2ccc(Sc3ccc(Br)cc3C(F)(F)F)cn12` [Example 51, 6-{[4-bromo-2-(trifluoromethyl)phenyl]thio}-3-isopropyl[1,2,4]triazolo[4,3-a]pyridine hydrochloride], the 50% inhibitory concentration (IC50) was greater than 100000 nM.
In turn, `CC(C)c1nnc2ccc(Sc3ccc(F)cc3C(F)(F)F)cn12` [Example 53, 6-{[4-fluoro-2-(trifluoromethyl)phenyl]thio}-3-isopropyl[1,2,4]triazolo[4,3-a]pyridine hydrochloride] showed a half-inhibitory concentration (IC50) of 50500 nM.
On to `CC(C)c1nnc2ccc(Sc3c(Cl)cc(Cl)cc3Cl)cn12` [Example 55, 3-isopropyl-6-[(2,4,6-trichlorophenyl)thio][1,2,4]triazolo[4,3-a]pyridine hydrochloride], for which half-maximal inhibition (IC50) required 8240 nM.
For `C=Cc1ccc2nnc(C(C)C)n2c1` [Example 56, 3-isopropyl-6-vinyl[1,2,4]triazolo[4,3-a]pyridine], the IC50 is greater than 100000 nM.
In the case of `C=Cc1ccc(-c2nnc3ccc(Sc4ccc(F)cc4F)cn23)cc1` [Example 57, 6-[(2,4-difluorophenyl)thio]-3-(4-vinylphenyl)[1,2,4]triazolo[4,3-a]pyridine] it was 181 nM; in that of `COC(=O)c1cccc(-c2nnc3ccc(Cc4ccc(F)cc4F)cn23)c1` [Example 58, methyl 3-[6-(2,4-difluorobenzyl)[1,2,4]triazolo[4,3-a]pyridin-3-yl]benzoate], 141 nM; in that of `O=C(O)c1ccc(-c2nnc3ccc(Cc4ccc(F)cc4F)cn23)cc1` [Example 59, 4-[6-(2,4-difluorobenzyl)[1,2,4]triazolo[4,3-a]pyridin-3-yl]benzoic acid], greater than 100000 nM.
Take `CC(C)c1nnc2ccc([S+]([O-])c3ccc(F)cc3F)cn12` (centres unmarked) [Example 60, 6-[(2,4-difluorophenyl)sulfinyl]-3-isopropyl[1,2,4]triazolo[4,3-a]pyridine]: the IC50 was 9680 nM.
Take `CC(C)c1nnc2ccc(S(=O)(=O)c3ccc(F)cc3F)cn12` [Example 61, 6-[(2,4-difluorophenyl)sulfonyl]-3-isopropyl[1,2,4]triazolo[4,3-a]pyridine]: the IC50 is greater than 100000 nM.
To `OCC(O)c1ccc(-c2nnc3ccc(Cc4ccc(F)cc4F)cn23)cc1` (centres unmarked) [Example 62, 1-{4-[6-(2,4-difluorobenzyl)[1,2,4]triazolo[4,3-a]pyridin-3-yl]phenyl}ethane-1,2-diol trifluoroacetate] belongs 443 nM; to `CC(C)(C)c1nnc2ccc(Sc3c(Cl)cccc3Cl)cn12` [Example 63, 3-tert-butyl-6-[(2,6-dichlorophenyl)thio][1,2,4]triazolo[4,3-a]pyridine], 54.6 nM; to `COC(=O)c1cccc(-c2nnc3ccc(Sc4ccc(F)cc4F)cn23)c1` [Example 64A, methyl 3-{6-[(2,4-difluorophenyl)thio][1,2,4]triazolo[4,3-a]pyridin-3-yl}benzoate], 181 nM.
`O=C(O)c1cccc(-c2nnc3ccc(Sc4ccc(F)cc4F)cn23)c1` [Example 64B, 3-{6-[(2,4-difluorophenyl)thio][1,2,4]triazolo[4,3-a]pyridin-3-yl}benzoic acid]: it took 7420 nM to reach half-maximal inhibition (IC50).
In the case of `COC(=O)c1cccc(-c2nnc3ccc(C(O)c4ccc(F)cc4F)cn23)c1` (centres unmarked) [Example 65, methyl 3-{6-[(2,4-difluorophenyl)(hydroxy)methyl][1,2,4]triazolo[4,3-a]pyridin-3-yl}benzoate] it was 1130 nM; in that of `O=C(O)c1cccc(-c2nnc3ccc(C(=O)c4ccc(F)cc4F)cn23)c1` [Example 66, 3-[6-(2,4-difluorobenzoyl)[1,2,4]triazolo[4,3-a]pyridin-3-yl]benzoic acid], greater than 100000 nM; in that of `CC(C)c1nnc2ccc(Cc3ccccc3F)cn12` [Example 67, 6-(2-fluorobenzyl)-3-isopropyl[1,2,4]triazolo[4,3-a]pyridine], 699 nM.
With `CC(C)c1nnc2ccc(Cc3cccc(F)c3)cn12` [Example 68, 6-(3-fluorobenzyl)-3-isopropyl[1,2,4]triazolo[4,3-a]pyridine], the IC50 worked out at 5260 nM.
For the compound `CC(C)c1nnc2ccc(Cc3ccc(F)cc3)cn12` [Example 69, 6-(4-fluorobenzyl)-3-isopropyl[1,2,4]triazolo[4,3-a]pyridine], the IC50 is 2500 nM.
Compound `CC(C)(C)c1nnc2ccc(Cc3ccc(F)cc3F)cn12` [Example 70, 3-tert-butyl-6-(2,4-difluorobenzyl)[1,2,4]triazolo[4,3-a]pyridine] showed an IC50 of 122 nM. Compared with the last compound, the IC50 is about 20-fold lower.
Compound `CC(C)C(=O)c1ccc2nnc(C(C)C)n2c1` [Example 71, 1-(3-isopropyl[1,2,4]triazolo[4,3-a]pyridin-6-yl)-2-methylpropan-1-one] registered an IC50 of 99100 nM.
